Source: PubChem BioAssay AID1259407 (Chemical Carcinogenesis Research Information System (CCRIS), 2018)
Activity calls are given as the source filed them. How the calls were made is not given here.

Test system: CCRIS mutagenicity, Ames/micronucleus/aberration tests
Assay: CCRIS mutagenicity studies

## O=[N+]([O-])c1ccc2c(c1)Cc1ccccc1-2
End Point: IN VITRO CHROMOSOMAL ABERRATIONS, Test System: CHINESE HAMSTER LUNG (CHL) CELLS, Metabolic Activation: NONE
  mutagenic call: inactive; negative
End Point: IN VITRO CHROMOSOMAL ABERRATIONS, Test System: CHINESE HAMSTER LUNG (CHL) CELLS, Metabolic Activation: RAT, LIVER, S-9, KC-400
  mutagenic call: active; positive
End Point: IN VITRO MICRONUCLEUS, Test System: CHL/IU CELLS, Metabolic Activation: NONE
  mutagenic call: active; positive
Test System: AMES SALMONELLA TYPHIMURIUM, Strain/Indicator: TA98 (1,8-DNP6), Metabolic Activation: NONE, Method: PREINCUBATION
  mutagenic call: active; positive
Test System: AMES SALMONELLA TYPHIMURIUM, Strain/Indicator: TA98(1,8-DNP6), Metabolic Activation: NONE, Method: STANDARD PLATE
  mutagenic call: active; positive
Test System: AMES SALMONELLA TYPHIMURIUM, Strain/Indicator: TA98 (NR), Metabolic Activation: NONE, Method: PREINCUBATION
  mutagenic call: active; positive
Test System: AMES SALMONELLA TYPHIMURIUM, Strain/Indicator: TA98(NR), Metabolic Activation: NONE, Method: STANDARD PLATE
  mutagenic call: active; positive
Test System: AMES SALMONELLA TYPHIMURIUM, Strain/Indicator: TA98 (NR), Metabolic Activation: RAT LIVER S-9 (10%), Method: PREINCUBATION
  mutagenic call: active; positive
Test System: AMES SALMONELLA TYPHIMURIUM, Strain/Indicator: TA98 (NR), Metabolic Activation: RAT LIVER S-9, 3-METHYLCHOLANTHRENE (10%), Method: PREINCUBATION
  mutagenic call: active; positive
Test System: AMES SALMONELLA TYPHIMURIUM, Strain/Indicator: TA98 (NR), Metabolic Activation: RAT LIVER S-9, BETA-NAPHTHAFLAVONE (10%), Method: PREINCUBATION
  mutagenic call: active; positive
Test System: AMES SALMONELLA TYPHIMURIUM, Strain/Indicator: TA98(NR), Metabolic Activation: RAT LIVER S-9, PHENOBARBITAL (10%), Method: PREINCUBATION
  mutagenic call: active; positive
Test System: AMES SALMONELLA TYPHIMURIUM, Strain/Indicator: TA98 (NR), Metabolic Activation: RAT LIVER S-9 PCB, 10%, Method: PREINCUBATION
  mutagenic call: active; positive
Test System: AMES SALMONELLA TYPHIMURIUM, Strain/Indicator: TA98, Metabolic Activation: NONE, Method: SPIRAL ASSAY
  mutagenic call: active; positive
Test System: AMES SALMONELLA TYPHIMURIUM, Strain/Indicator: TA98, Metabolic Activation: RAT, LIVER, S-9, AROCLOR 1254, Method: SPIRAL ASSAY
  mutagenic call: active; positive
Test System: AMES SALMONELLA TYPHIMURIUM, Strain/Indicator: TA98, Metabolic Activation: RAT, LIVER, S-9, AROCLOR 1254, Method: STANDARD PLATE
  mutagenic call: active; positive
Test System: AMES SALMONELLA TYPHIMURIUM, Strain/Indicator: TA98, Metabolic Activation: RAT, LIVER, S-9, PCB (10%), Method: PREINCUBATION
  mutagenic call: active; positive
Test System: AMES SALMONELLA TYPHIMURIUM, Strain/Indicator: TA98, Metabolic Activation: S-9, Method: PREINCUBATION
  mutagenic call: active; positive
Test System: AMES SALMONELLA TYPHIMURIUM, Strain/Indicator: TA98, Metabolic Activation: S-9, Method: STANDARD PLATE
  mutagenic call: active; positive
Test System: AMES SALMONELLA TYPHIMURIUM, Strain/Indicator: TA100(NR), Metabolic Activation: NONE, Method: STANDARD PLATE
  mutagenic call: inactive; negative
Test System: AMES SALMONELLA TYPHIMURIUM, Strain/Indicator: TA100(TN5-1,8-DNP1012), Metabolic Activation: NONE, Method: STANDARD PLATE
  mutagenic call: inactive; negative
Test System: AMES SALMONELLA TYPHIMURIUM, Strain/Indicator: TA100, Metabolic Activation: NONE, Method: PREINCUBATION
  mutagenic call: active; positive
Test System: AMES SALMONELLA TYPHIMURIUM, Strain/Indicator: TA100, Metabolic Activation: NONE, Method: SPIRAL ASSAY
  mutagenic call: active; positive
Test System: AMES SALMONELLA TYPHIMURIUM, Strain/Indicator: TA100, Metabolic Activation: RAT, LIVER, S-9, AROCLOR 1254, Method: SPIRAL ASSAY
  mutagenic call: active; positive
Test System: AMES SALMONELLA TYPHIMURIUM, Strain/Indicator: TA100, Metabolic Activation: RAT, LIVER, S-9, AROCLOR 1254, Method: STANDARD PLATE
  mutagenic call: active; positive
Test System: AMES SALMONELLA TYPHIMURIUM, Strain/Indicator: TA100, Metabolic Activation: S-9, Method: STANDARD PLATE
  mutagenic call: active; positive
Test System: AMES SALMONELLA TYPHIMURIUM, Strain/Indicator: TA102, Metabolic Activation: NONE, Method: PREINCUBATION
  mutagenic call: active; positive
Test System: AMES SALMONELLA TYPHIMURIUM, Strain/Indicator: TA1535, Metabolic Activation: NONE, Method: PREINCUBATION
  mutagenic call: active; positive
Test System: AMES SALMONELLA TYPHIMURIUM, Strain/Indicator: TA1535, Metabolic Activation: NONE, Method: SPIRAL ASSAY
  mutagenic call: inactive; negative
Test System: AMES SALMONELLA TYPHIMURIUM, Strain/Indicator: TA1535, Metabolic Activation: NONE, Method: STANDARD PLATE
  mutagenic call: inactive; negative
Test System: AMES SALMONELLA TYPHIMURIUM, Strain/Indicator: TA1535, Metabolic Activation: RAT, LIVER, S-9, AROCLOR 1254, Method: SPIRAL ASSAY
  mutagenic call: inactive; negative
Test System: AMES SALMONELLA TYPHIMURIUM, Strain/Indicator: TA1535, Metabolic Activation: RAT, LIVER, S-9, AROCLOR 1254, Method: STANDARD PLATE
  mutagenic call: inactive; negative
Test System: AMES SALMONELLA TYPHIMURIUM, Strain/Indicator: TA1537, Metabolic Activation: NONE, Method: SPIRAL ASSAY
  mutagenic call: active; positive
Test System: AMES SALMONELLA TYPHIMURIUM, Strain/Indicator: TA1537, Metabolic Activation: NONE, Method: STANDARD PLATE
  mutagenic call: active; positive
Test System: AMES SALMONELLA TYPHIMURIUM, Strain/Indicator: TA1537, Metabolic Activation: RAT, LIVER, S-9, AROCLOR 1254, Method: SPIRAL ASSAY
  mutagenic call: active; positive
Test System: AMES SALMONELLA TYPHIMURIUM, Strain/Indicator: TA1537, Metabolic Activation: RAT, LIVER, S-9, AROCLOR 1254, Method: STANDARD PLATE
  mutagenic call: active; positive
Test System: AMES SALMONELLA TYPHIMURIUM, Strain/Indicator: TA1538, Metabolic Activation: NONE, Method: STANDARD PLATE
  mutagenic call: active; positive
Test System: AMES SALMONELLA TYPHIMURIUM, Strain/Indicator: TA1975, Metabolic Activation: NONE, Method: PREINCUBATION
  mutagenic call: active; positive
Test System: AMES SALMONELLA TYPHIMURIUM, Strain/Indicator: YG1020, Metabolic Activation: NONE, Method: PREINCUBATION
  mutagenic call: active; positive
Test System: AMES SALMONELLA TYPHIMURIUM, Strain/Indicator: YG1024, Metabolic Activation: NONE, Method: PREINCUBATION
  mutagenic call: active; positive
Test System: AMES SALMONELLA TYPHIMURIUM, Strain/Indicator: YG1025, Metabolic Activation: NONE, Method: PREINCUBATION
  mutagenic call: active; positive
Test System: AMES SALMONELLA TYPHIMURIUM, Strain/Indicator: YG1029, Metabolic Activation: NONE, Method: PREINCUBATION
  mutagenic call: active; positive
Test System: AMES SALMONELLA TYPHIMURIUM, Strain/Indicator: YG3001, Metabolic Activation: NONE, Method: PREINCUBATION
  mutagenic call: active; positive
Test System: AMES SALMONELLA TYPHIMURIUM, Strain/Indicator: YG3002, Metabolic Activation: NONE, Method: PREINCUBATION
  mutagenic call: active; positive
Test System: AMES SALMONELLA TYPHIMURIUM, Strain/Indicator: YG3003, Metabolic Activation: NONE, Method: PREINCUBATION
  mutagenic call: active; positive
Test System: AMES SALMONELLA TYPHIMURIUM, Strain/Indicator: YG7112, Metabolic Activation: NONE, Method: PREINCUBATION
  mutagenic call: active; positive
Test System: AMES SALMONELLA TYPHIMURIUM, Strain/Indicator: YG7113, Metabolic Activation: NONE, Method: PREINCUBATION
  mutagenic call: active; positive
Test System: CHINESE HAMSTER OVARY, Strain/Indicator: CHO-K1-BH4 (HGPRT), Metabolic Activation: RAT, LIVER, S-9, AROCLOR, Method: SUSPENSION/PLATE
  mutagenic call: active; positive
Test System: E. COLI, Strain/Indicator: WP2 UVRA, Metabolic Activation: HAMSTER, LIVER, S-9, AROCLOR 1254, Method: STANDARD PLATE
  mutagenic call: inactive; negative
Test System: E. COLI, Strain/Indicator: WP2 UVRA, Metabolic Activation: HAMSTER, LIVER, S-9, Method: STANDARD PLATE
  mutagenic call: inactive; negative
Test System: E. COLI, Strain/Indicator: WP2 UVRA, Metabolic Activation: MOUSE, LIVER, S-9, AROCLOR 1254, Method: STANDARD PLATE
  mutagenic call: inactive; negative
Test System: E. COLI, Strain/Indicator: WP2 UVRA, Metabolic Activation: MOUSE, LIVER, S-9, Method: STANDARD PLATE
  mutagenic call: inactive; negative
Test System: E. COLI, Strain/Indicator: WP2 UVRA, Metabolic Activation: NONE, Method: STANDARD PLATE
  mutagenic call: inactive; negative
Test System: E. COLI, Strain/Indicator: WP2 UVRA, Metabolic Activation: RAT, LIVER, S-9, AROCLOR 1254, Method: STANDARD PLATE
  mutagenic call: inactive; negative
Test System: E. COLI, Strain/Indicator: WP2 UVRA, Metabolic Activation: RAT, LIVER, S-9, Method: STANDARD PLATE
  mutagenic call: inactive; negative
Test System: MOUSE LYMPHOMA, Strain/Indicator: L5178Y (TK+/TK-), Metabolic Activation: NONE, Method: SUSPENSION/PLATE
  mutagenic call: active; positive
Test System: UDS RAT HEPATOCYTES, Strain/Indicator: THY INCORP, Metabolic Activation: NONE, Method: AUTORADIOGRAPHY (SERUM-FREE MEDIA)
  mutagenic call: active; positive

## Oc1ccc2cc3c4ccccc4c4ccccc4c3cc2c1O
Test System: AMES SALMONELLA TYPHIMURIUM, Strain/Indicator: TA100, Metabolic Activation: RAT, LIVER, S-9, AROCLOR 1254, Method: PREINCUBATION
  mutagenic call: active; positive
